Test: xn = mol fraction of the nth substance listed
Details: for surface tension liquid-gas: Pendant drop shape; for mass density: 101 kPa, Liquid, Vibrating tube method

Cc1ccc(C)c(C)c1 [1,2,4-trimethylbenzene] + CCCCOC(C)=O
Details	mass density [kg/m3]	surface tension liquid-gas [mN/m]
298.15 K, x2 = 0	871.66	29.17
298.15 K, x2 = 0.0563	871.92	–
298.15 K, x2 = 0.0998	–	28.68
298.15 K, x2 = 0.1045	872.14	–
298.15 K, x2 = 0.1496	872.35	–
298.15 K, x2 = 0.1996	872.58	–
298.15 K, x2 = 0.2001	–	28.2
298.15 K, x2 = 0.2533	872.82	–
298.15 K, x2 = 0.2994	–	27.73
298.15 K, x2 = 0.2998	873.03	–
298.15 K, x2 = 0.3552	873.27	–
298.15 K, x2 = 0.3998	873.46	–
298.15 K, x2 = 0.4003	–	27.25
298.15 K, x2 = 0.45	873.68	–
298.15 K, x2 = 0.4958	–	26.78
298.15 K, x2 = 0.5001	873.9	–
298.15 K, x2 = 0.5503	874.11	–
298.15 K, x2 = 0.5995	874.32	–
298.15 K, x2 = 0.6001	–	26.33
298.15 K, x2 = 0.6495	874.54	–
298.15 K, x2 = 0.6998	874.75	–
298.15 K, x2 = 0.6999	–	25.93
298.15 K, x2 = 0.7495	874.97	–
298.15 K, x2 = 0.7998	–	25.57
298.15 K, x2 = 0.7999	875.2	–
298.15 K, x2 = 0.8499	875.43	–
298.15 K, x2 = 0.8989	875.67	–
298.15 K, x2 = 0.8997	–	25.23
298.15 K, x2 = 0.9478	875.91	–
303.15 K, x2 = 0	867.61	28.67
303.15 K, x2 = 0.1001	867.99	28.18
303.15 K, x2 = 0.2009	868.38	27.69
303.15 K, x2 = 0.3006	868.73	27.22
303.15 K, x2 = 0.4001	869.1	26.73
303.15 K, x2 = 0.5004	869.45	26.27
303.15 K, x2 = 0.6006	869.81	25.8
303.15 K, x2 = 0.7001	870.15	25.4
303.15 K, x2 = 0.7997	870.43	25.03
303.15 K, x2 = 0.9	870.91	24.7
308.15 K, x2 = 0	863.59	28.17
308.15 K, x2 = 0.1005	863.87	27.67
308.15 K, x2 = 0.1998	864.16	27.18
308.15 K, x2 = 0.3004	864.42	26.7
308.15 K, x2 = 0.4003	864.67	26.21
308.15 K, x2 = 0.5007	864.93	25.75
308.15 K, x2 = 0.5991	865.17	25.28
308.15 K, x2 = 0.6995	865.43	24.87
308.15 K, x2 = 0.7999	865.68	24.5
308.15 K, x2 = 0.9004	865.94	24.16
313.15 K, x2 = 0	859.54	27.67
313.15 K, x2 = 0.0499	859.66	–
313.15 K, x2 = 0.1002	859.76	27.12
313.15 K, x2 = 0.1503	859.87	–
313.15 K, x2 = 0.1995	859.98	26.55
313.15 K, x2 = 0.25	860.08	–
313.15 K, x2 = 0.3	860.19	26.02
313.15 K, x2 = 0.35	860.28	–
313.15 K, x2 = 0.3996	860.37	25.48
313.15 K, x2 = 0.4499	860.46	–
313.15 K, x2 = 0.5002	860.56	24.99
313.15 K, x2 = 0.5499	860.65	–
313.15 K, x2 = 0.5998	860.73	24.55
313.15 K, x2 = 0.6503	860.82	–
313.15 K, x2 = 0.6999	860.91	24.2
313.15 K, x2 = 0.7499	861.01	–
313.15 K, x2 = 0.8004	861.1	23.9
313.15 K, x2 = 0.85	861.21	–
313.15 K, x2 = 0.9005	861.33	23.62
313.15 K, x2 = 0.9496	861.45	–

Cc1ccc(C)c(C)c1 [1,2,4-trimethylbenzene] + CCCOC(C)=O
Details	mass density [kg/m3]	surface tension liquid-gas [mN/m]
298.15 K, x2 = 0	871.66	29.17
298.15 K, x2 = 0.0607	872.13	–
298.15 K, x2 = 0.1002	872.45	28.61
298.15 K, x2 = 0.1578	872.95	–
298.15 K, x2 = 0.2008	873.32	28.06
298.15 K, x2 = 0.2518	873.78	–
298.15 K, x2 = 0.302	874.24	27.51
298.15 K, x2 = 0.3504	874.71	–
298.15 K, x2 = 0.4003	875.2	26.97
298.15 K, x2 = 0.4568	875.78	–
298.15 K, x2 = 0.4993	876.23	26.44
298.15 K, x2 = 0.549	876.77	–
298.15 K, x2 = 0.6006	877.36	25.93
298.15 K, x2 = 0.6494	877.93	–
298.15 K, x2 = 0.7006	878.55	25.44
298.15 K, x2 = 0.7493	879.16	–
298.15 K, x2 = 0.7991	879.8	24.96
298.15 K, x2 = 0.8497	880.49	–
298.15 K, x2 = 0.8991	881.17	24.48
298.15 K, x2 = 0.9464	881.86	–
303.15 K, x2 = 0	867.61	28.67
303.15 K, x2 = 0.0982	868.25	28.09
303.15 K, x2 = 0.1994	868.98	27.53
303.15 K, x2 = 0.3006	869.76	26.96
303.15 K, x2 = 0.3996	870.56	26.4
303.15 K, x2 = 0.503	871.46	25.86
303.15 K, x2 = 0.6003	872.41	25.34
303.15 K, x2 = 0.6979	873.41	24.83
303.15 K, x2 = 0.7993	874.52	24.34
303.15 K, x2 = 0.8992	875.72	23.86
308.15 K, x2 = 0	863.59	28.17
308.15 K, x2 = 0.0986	864.07	27.57
308.15 K, x2 = 0.1998	864.65	26.99
308.15 K, x2 = 0.3028	865.29	26.41
308.15 K, x2 = 0.4004	865.93	25.83
308.15 K, x2 = 0.5036	866.67	25.27
308.15 K, x2 = 0.6003	867.44	24.74
308.15 K, x2 = 0.6977	868.27	24.22
308.15 K, x2 = 0.8	869.22	23.72
308.15 K, x2 = 0.9005	870.23	23.23
313.15 K, x2 = 0	859.54	27.67
313.15 K, x2 = 0.0497	859.64	–
313.15 K, x2 = 0.0998	859.82	–
313.15 K, x2 = 0.1005	–	27.05
313.15 K, x2 = 0.15	860.01	–
313.15 K, x2 = 0.2001	860.24	26.46
313.15 K, x2 = 0.2498	860.45	–
313.15 K, x2 = 0.2999	860.71	25.86
313.15 K, x2 = 0.35	860.98	–
313.15 K, x2 = 0.4001	861.25	25.26
313.15 K, x2 = 0.4503	861.53	–
313.15 K, x2 = 0.4997	861.83	–
313.15 K, x2 = 0.4998	–	24.69
313.15 K, x2 = 0.5502	862.15	–
313.15 K, x2 = 0.6001	862.48	24.15
313.15 K, x2 = 0.6499	862.81	–
313.15 K, x2 = 0.7	863.18	–
313.15 K, x2 = 0.7002	–	23.61
313.15 K, x2 = 0.7503	863.54	–
313.15 K, x2 = 0.7998	863.94	23.1
313.15 K, x2 = 0.85	864.35	–
313.15 K, x2 = 0.9002	864.79	22.61
313.15 K, x2 = 0.9495	865.18	–
